Data: patent publication US10654816B2, “Compounds and compositions for treating conditions associated with NLRP activity” (NOVARTIS INFLAMMASOME RESEARCH, INC., priority 2017, dated 2020)

System: IL-1β production in PMA-differentiated THP-1 cells
Assay: IL-1β production in PMA-differentiated THP-1 cells stimulated with gramicidin (hTHP-1 assay, HTRF readout; Procedures 1-3)
Type: cell-based, human
Details: Homo sapiens, THP-1, hTHP-1 assay containing 2% fetal bovine serum; average; class symbols; read-out: hTHP-1 IC50 (Average IC50 of compounds in hTHP-1 assay)
Protocol: The Following Protocol is Suitable for Testing the Activity of the Compounds Disclosed Herein. Procedure 1: IL-1B Production in PMA-Differentiated THP-1 Cells Stimulated with Gramicidin.
THP-1 cells were purchased from the American Type Culture Collection and sub-cultured according to instructions from the supplier. Cells were cultured in complete RPMI 1640 (containing 10% heat inactivated FBS, penicillin (100 units/ml) and streptomycin (100 μg/ml)), and maintained in log phase prior to experimental setup. Prior to the experiment, compounds were dissolved in dimethyl sulfoxide (DMSO) to generate a 30 mM stock. The compound stock was first pre-diluted in DMSO to 3, 0.34, 0.042 and 0.0083 mM intermediate concentrations and subsequently spotted using Echo550 liquid handler into an empty 384-well assay plate to achieve desired final concentration (e.g. 100, 33, 11, 3.7, 1.2, 0.41, 0.14, 0.046, 0.015, 0.0051, 0.0017 μM). DMSO was backfilled in the plate to achieve a final DMSO assay concentration of 0.37%. The plate was then sealed and stored at room temperature until required.
THP-1 cells were treated with PMA (Phorbol 12-myristate 13-acetate) (20 ng/ml) for 16-18 hours. On the day of the experiment the media was removed and adherent cells were detached with trypsin for 5 minutes. Cells were then harvested, washed with complete RPMI 1640, spun down, and resuspended in RPMI 1640 (containing 2% heat inactivated FBS, penicillin (100 units/ml) and streptomycin (100 μg/ml). The cells were plated in the 384-well assay plate containing the spotted compounds at a density of 50,000 cells/well (final assay volume 50 μl). Cells were incubated with compounds for 1 hour and then stimulated with gramicidin (5 μM) (Enzo) for 2 hours. Plates were then centrifuged at 340 g for 5 min. Cell free supernatant (40 μL) was collected using a 96-channel PlateMaster (Gilson) and the production of IL-1β was evaluated by HTRF (cisbio). The plates were incubated for 18 h at 4° C. and read using the preset HTRF program (donor emission at 620 nm, acceptor emission at 668 nm) of the SpectraMax i3x spectrophotometer (Molecular Devices, software SoftMax 6). A vehicle only control and a dose titration of CRID3 (100-0.0017 μM) were run concurrently with each experiment.
Procedure 2: IL-1β Production in PMA-Differentiated THP-1 Cells Stimulated with Gramicidin.
THP-1 cells were purchased from the American Type Culture Collection and sub-cultured according to instructions from the supplier. Prior to experiments, cells were cultured in complete RPMI 1640 (containing 10% heat inactivated FBS, penicillin (100 units/ml) and streptomycin (100 μg/ml)), and maintained in log phase prior to experimental setup. Prior to the experiment THP-1 were treated with PMA (Phorbol 12-myristate 13-acetate) (20 ng/ml) for 16-18 hours. Compounds were dissolved in dimethyl sulfoxide (DMSO) to generate a 30 mM stock.
On the day of the experiment the media was removed and adherent cells were detached with trypsin for 5 minutes. Cells were then harvested, washed with complete RPMI 1640, spun down, resuspended in RPMI 1640 (containing 2% heat inactivated FBS, penicillin (100 units/ml) and streptomycin (100 μg/ml). The cells were plated in a 384-well plate at a density of 50,000 cells/well (final assay volume 50 μl). Compounds were first dissolved in assay medium to obtain a 5× top concentration of 500 μM. 10 step dilutions (1:3) were then undertaken in assay medium containing 1.67% DMSO. 5× compound solutions were added to the culture medium to achieve desired final concentration (e.g. 100, 33, 11, 3.7, 1.2, 0.41, 0.14, 0.046, 0.015, 0.0051, 0.0017 μM). Final DMSO concentration was at 0.37%. Cells were incubated with compounds for 1 hour and then stimulated with gramicidin (5 μM) (Enzo) for 2 hours. Plates were then centrifuged at 340 g for 5 min. Cell free supernatant (40 μL) was collected using a 96-channel PlateMaster (Gilson) and the production of IL-1β was evaluated by HTRF (cisbio). […]

Structure (SMILES) | IC50 [µM]
C#CCCC(=O)N(C)Cc1ccc(S(N)(=O)=NC(=O)Nc2c3c(cc4c2CCC4)CCC3)cc1 (single isomer, unassigned) [Example 312, (S) or (R)-N-(4-(N′-((1,2,3,5,6,7-hexahydro-s-indacen-4-yl)carbamoyl)sulfamid-imidoyl)benzyl)-N-methylpent-4-ynamide] | 1 to 5
CCc1ccc2cnn(C)c2c1NC(=O)N=S(N)(=O)c1ncc(C(C)(C)O)s1 (single isomer, unassigned) [Example 328, (R) or (S)-N′-((6-ethyl-1-methyl-1H-indazol-7-yl)carbamoyl)-5-(2-hydroxypropan-2-yl)thiazole-2-sulfonimidamide] | 1 to 5
CC(C)(O)c1ncc(S(N)(=O)=NC(=O)Nc2c3c(cc4c2CCC4O)CCC3)s1 (single isomer, unassigned) [Example 337, (R, R) or (R, S)-N′-((l-hydroxy-1,2,3,5,6,7-hexahydro-s-indacen-4-yl)carbamoyl)-2-(2-hydroxypropan-2-yl)thiazole-5-sulfonimidamide] | 1 to 5
CN(C)S(=O)(=NC(=O)Nc1c2c(cc3c1CCC3)CCC2)c1cc(C(C)(C)O)cs1 (single isomer, unassigned) [Example 357, (R) or (S)-N′-((1,2,3,5,6,7-hexahydro-s-indacen-4-yl)carbamoyl)-4-(2-hydroxypropan-2-yl)-N,N-dimethylthiophene-2-sulfonimidamide] | 5 to 30

The next lines start with the values.

IC50 [µM] | Structure (SMILES)
5 to 30 | CC(C)c1cc(C#N)cc(C(C)C)c1NC(=O)N=S(N)(=O)c1ccc(S(C)(=O)=O)cc1 (single isomer, unassigned) [Example 196, (S)- or (R)-N′-((4-cyano-2,6-diisopropylphenyl)carbamoyl)-4-(methylsulfonyl)-benzenesulfonimidamide]
5 to 30 | CC(C)c1cc(C#N)cc(C(C)C)c1NC(=O)N=S(N)(=O)c1cc(C(C)(C)O)cc(C(C)(C)O)c1 (single isomer, unassigned) [Example 198, N′-((4-cyano-2,6-diisopropylphenyl)carbamoyl)-3,5-bis-(2-hydroxypropan-2-yl)benzenesulfonimidamide]
5 to 30 | CCc1ccc2cn[nH]c2c1NC(=O)N=S(N)(=O)c1cnc(C(C)(C)O)s1 (single isomer, unassigned) [Example 326, (R) or (S)-N′-((6-ethyl-1H-indazol-7-yl)carbamoyl)-2-(2-hydroxypropan-2-yl)thiazole-5-sulfonimidamide]

Same assay, conditions: Homo sapiens, THP-1, hTHP-1 assay containing 2% fetal bovine serum; average; given as bound; read-out: hTHP-1 IC50 (Average IC50 of compounds in hTHP-1 assay)

Structure (SMILES) | IC50 [µM]
CCc1ccc2cnn(C)c2c1NC(=O)N=S(N)(=O)c1ncc(C(C)(C)O)s1 (single isomer, unassigned) [Example 327, (S) or (R)-N′-((6-ethyl-1-methyl-1H-indazol-7-yl)carbamoyl)-5-(2-hydroxypropan-2-yl)thiazole-2-sulfonimidamide] | > 30
CCc1ccc2cn(C)nc2c1NC(=O)N=S(N)(=O)c1ncc(C(C)(C)O)s1 (single isomer, unassigned) [Example 329, (S) or (R)-N′-((6-ethyl-2-methyl-2H-indazol-7-yl)carbamoyl)-5-(2-hydroxypropan-2-yl)thiazole-2-sulfonimidamide] | > 30
CN(C)S(=O)(=NC(=O)Nc1c2c(cc3c1CCC3)CCC2)c1cc(C(C)(C)O)cs1 (single isomer, unassigned) [Example 358, (S) or (R) -N′-((1,2,3,5,6,7-hexahydro-s-indacen-4-yl)carbamoyl)-4-(2-hydroxypropan-2-yl)-N,N-dimethylthiophene-2-sulfonimidamide] | > 30

The remaining lines, values ahead:

IC50 [µM] | Structure (SMILES)
> 30 | CC(C)c1cc(C#N)cc(C(C)C)c1NC(=O)N=S(N)(=O)c1sc(C(C)(C)O)nc1CO (single isomer, unassigned) [Example 193, (R)- or (S)-N′-((4-cyano-2,6-diisopropylphenyl)carbamoyl)-4-(hydroxymethyl)-2-(2-hydroxypropan-2-yl)thiazole-5-sulfonimidamide]
> 30 | CC(C)c1cc(C#N)cc(C(C)C)c1NC(=O)N=S(N)(=O)c1ccc(S(C)(=O)=O)cc1 (single isomer, unassigned) [Example 197, (R)- or (S)-N′-((4-cyano-2,6-diisopropylphenyl)carbamoyl)-4-(methyl-sulfonyl)benzenesulfonimidamide]
> 30 | CC(C)c1cc(C#N)cc(C(C)C)c1NC(=O)N=S(N)(=O)c1cc(C(C)(C)O)cc(C(C)(C)O)c1 (single isomer, unassigned) [Example 199, N′-((4-cyano-2,6-diisopropylphenyl)carbamoyl)-3,5-bis-(2-hydroxypropan-2-yl)benzenesulfonimidamide]

Same assay, conditions: Homo sapiens, THP-1, hTHP-1 assay containing 2% fetal bovine serum; average; numeric bound printed without unit; read-out: hTHP-1 IC50 (Average IC50 of compounds in hTHP-1 assay)

IC50 [µM] | Structure (SMILES)
> 28.4 | CCc1ccc2cn[nH]c2c1NC(=O)N=S(N)(=O)c1cnc(C(C)(C)O)s1 (single isomer, unassigned) [Example 325, (S) or (R)-N′-((6-ethyl-1H-indazol-7-yl)carbamoyl)-2-(2-hydroxypropan-2-yl)thiazole-5-sulfonimidamide]

Same assay, conditions: hTHP-1 assay containing 2% fetal bovine serum; average; class symbols; read-out: hTHP-1 IC50 (Average IC50 of compounds in hTHP-1 assay)

IC50 [µM] | Structure (SMILES)
0.008 to 0.04 | CC(C)(O)c1ncc([S@](N)(=O)=NC(=O)Nc2c3c(cc4c2CC4)CCC3)s1 (single isomer, unassigned) [Example 224]
1 to 5 | CC(C)(O)c1ncc([S@@](N)(=O)=NC(=O)Nc2c3c(cc4c2CC4)CCC3)s1 (single isomer, unassigned) [Example 225]
1 to 5 | C#CCCC(=O)N(C)Cc1ccc(S(N)(=O)=NC(=O)Nc2c3c(cc4c2CCC4)CCC3)cc1 (single isomer, unassigned) [Example 313, (R) or (S)-N-(4-(N′-((1,2,3,5,6,7-hexahydro-s-indacen-4-yl)carbamoyl)sulfamid-imidoyl)benzyl)-N-methylpent-4-ynamide]
1 to 5 | CC(C)(O)c1ncc(S(N)(=O)=NC(=O)Nc2c3c(cc4c2CCC4O)CCC3)s1 (single isomer, unassigned) [Example 338, (R, S) or (R, R)-N′-((1-hydroxy-1,2,3,5,6,7-hexahydro-s-indacen-4-yl)carbamoyl)-2-(2-hydroxypropan-2-yl)thiazole-5-sulfonimidamide]
1 to 5 | CC(C)(O)c1ncc(S(N)(=O)=NC(=O)Nc2c3c(cc4c2CCC4O)CCC3)s1 (single isomer, unassigned) [Example 339, (S, S) or (S, R)-N′-((l-hydroxy-1,2,3,5,6,7-hexahydro-s-indacen-4-yl)carbamoyl)-2-(2-hydroxypropan-2-yl)thiazole-5-sulfonimidamide]
1 to 5 | CC(C)(O)c1ncc(S(N)(=O)=NC(=O)Nc2c3c(cc4c2CCC4O)CCC3)s1 (single isomer, unassigned) [Example 340, (S, R) or (S, S)-N′-((1-hydroxy-1,2,3,5,6,7-hexahydro-s-indacen-4-yl)carbamoyl)-2-(2-hydroxypropan-2-yl)thiazole-5-sulfonimidamide]

Same assay, conditions: hTHP-1 assay containing 2% fetal bovine serum; average; given as bound; read-out: hTHP-1 IC50 (Average IC50 of compounds in hTHP-1 assay)

IC50 [µM] | Structure (SMILES)
> 30 | CCc1ccc2cn(C)nc2c1NC(=O)N=S(N)(=O)c1ncc(C(C)(C)O)s1 (single isomer, unassigned) [Example 330, (R) or (S)-N′-((6-ethyl-2-methyl-2H-indazol-7-yl)carbamoyl)-5-(2-hydroxypropan-2-yl)thiazole-2-sulfonimidamide]
